In PubChem BioAssay AID2382 (Broad Institute, 2010) one finds IC50 data, which are given here for three molecules.

Inconclusive results are not listed. Activity calls are given as the source filed them.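 The calls were made as follows: active = IC50 at or below a set limit past the top dose tested; inconclusive = flat curve with 30 to 70% signal change, or a failed fit; inactive = IC50 above that set limit.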

This experiment relates to NIH3T3-HGL HSF1-luciferase reporter, MG132-induced, 8 h. As to the kind of experiment: decrease of HSF1-responsive luciferase luminescence – cell-based, NIH3T3, dose retest, confirmation (AID 2382).

A word on the IC50: it is the concentration at which inhibition is half-maximal. As for `C#CCOCCOCCOCCNc1nc(N2CCN(C(=O)[C@H](CCC(=O)O)n3cc(C(N)Cc4ccc(O)cc4)nn3)CC2)nc(N2CCN(C(=O)[C@H](Cc3ccc(O)cc3)n3cc(C(N)[C@H](C)CC)nn3)CC2)n1` (stereo partly drawn), the IC50 was > 19.5 µM (inactive).

Turning to `Cc1cc(=O)[nH]c(NN=C2CCC(C(C)(C)C)CC2)n1` (stereo not drawn), the IC50 was > 19.5 µM (inactive).

For `O=C(NN=C1CCC(c2ccccc2)CC1)c1cc2c(s1)CCCC2` (stereo not drawn), the IC50 was > 19.5 µM (inactive).
